Data on eight compounds can be found in patent publication US9822139B2, “Pharmaceutical composition containing cyclometalated N-heterocyclic carbene complexes for cancer treatment” (THE UNIVERSITY OF HONG KONG, priority 2009, dated 2017).

For data set [1], the system named is hepatocellular carcinoma (HepG2). Briefly: MTT cytotoxicity assay, HepG2. The settings on record: 72 h. The format is cell-based, human. The procedure:
(§1) Example 2 describes the in vitro cytotoxicity, which is indicative of the induction of cell death and/or inhibition of cellular proliferation of cancer cells, of the cyclometalated N-heterocyclic complexes on cervical epithelioid carcinoma, hepatocellular carcinoma, leukemia, nasopharyngeal carcinoma, breast carcinoma, melanoma, and lung carcinoma.
(§2) By means of MTT assays, the cytotoxic properties of cyclometalated N-heterocyclic carbene complexes (1-25) were determined toward some established human cancer cell lines including hepatocellular carcinoma (HepG2), cervical epithelioid carcinoma (HeLa), epithelial carcinoma (KB and its camptothecin-resistant cell line KB100), non-small cell lung carcinoma (NCI-H460), leukemia (HL-60), breast carcinoma (MDA-MB-231), melanoma (B16) and nasopharyngeal carcinoma (SUNE1). […] In terms of the IC50 values, they display similar cytotoxic properties compared to the reference complexes cisplatin and camptothecin (CPT).

Data set [2] deals with cervical epithelioid carcinoma (HeLa). In words: MTT cytotoxicity assay, HeLa. Format: cell-based, human. Particulars: 72 h. The procedure:
as §1, §2

For data set [3], the system named is epithelial carcinoma (KB). In words: MTT cytotoxicity assay, KB. The format is cell-based, human. The settings on record: 72 h. As to the method:
as §1, §2

Data set [4] concerns camptothecin-resistant cell line KB100. In words: MTT cytotoxicity assay, KB100. The format is cell-based, human. The settings on record: 72 h. The procedure:
as §1, §2

Data set [5] concerns nasopharyngeal carcinoma (SUNE1). Briefly: MTT cytotoxicity assay, SUNE1. Format: cell-based, human. The settings on record: 72 h. As to the method:
as §1, §2

The subject of data set [6] is non-small cell lung carcinoma (NCI-H460). In words: MTT cytotoxicity assay, NCI-H460. The format is cell-based, human. Particulars: 72 h. As to the method:
as §1, §2

Data set [7] has as its system breast carcinoma (MDA-MB-231). In words: MTT cytotoxicity assay, MDA-MB-231. Format: cell-based, human. Particulars: 72 h, MBA-MD-231. As to the method:
as §1, §2

The subject of the next data set is melanoma (B16). In words: MTT cytotoxicity assay, B16. The format is cell-based, mouse. Particulars: 72 h. The procedure:
as §1, §2

For the next data set, the system named is leukemia (HL-60). In words: MTT cytotoxicity assay, HL-60. The format is cell-based, human. The settings on record: 72 h. The procedure: as §1, §2
In data set [8] the test system is lung fibroblast cells (CCD-19Lu). In words: MTT cytotoxicity to non-cancerous cells, CCD-19Lu. The format is cell-based, human. The settings on record: 72 h, non-cancerous lung fibroblast cells CCD-19Lu. The procedure: as §2
Using lung fibroblast cells (CCD-19Lu), the cytotoxicity of the complexes to non-cancerous cells was also examined.

The subject of the next data set is NCI-H460 tumor. Briefly: In vivo anti-cancer study, NCI-H460 tumor in nude mice. Also noted: species or system BALB/c AnN-nu mice (nude mice). Particulars: twice-a-week intraperitoneal injection; for inhibition of NCI-H460 tumor growth: 28 days. From the text: For the complex 14, four-week-old male BALB/c AnN-nu mice (nude mice) were obtained from the laboratory of PearL Materia Medica Development (Shenzhen) Ltd. Tumor cells (1×10^6) resuspended in DMEM medium were implanted by subcutaneous injection on the right flank of the mice. When tumors were approximately 50 mm^3 in size, animals were randomly separated into four groups to receive treatment of twice-a-week intraperitoneal injection of 20% PET vehicle control (20% PET=12% polyethylene glycol 400; 6% ethanol; 2% Tween 20; 80% phosphate-buffered saline), complex 14 at 1 mg/kg, complex 14 at 3 mg/kg or cyclophosphamide at 30 mg/kg. Volumes of the tumor were measured every 3 to 4 days. Tumor volume was calculated by the formula: abc/2 in which a, represents tumor length; b, the width; and c, tumor thickness, as measured with a caliper and expressed in millimeter. After 28 days, the mice were sacrificed and the tumors were taken out and their weights were measured.

A further data set deals with SUNE1 cells. In words: Apoptosis induction by flow cytometry (AV-FITC / PI). Format: cell-based. Particulars: 72 h. As to the method: Since cancer is characterized by uncontrolled cellular proliferation, there is a considerable interest in chemotherapeutic-induced apoptosis [J. C. Reed, Nature Rev. Drug Discov. 2002, 1, 111; D. W. Nicholson, Nature 2000, 407, 810]. Using fluorescein-labeled annexin V (AV-FITC) and propidium iodide (PI), the apoptosis-inducing properties of complex 1 in SUNE1 cells were examined by flow cytometry. […] The apoptosis-inducing properties of complex 1 at a lower dose (12 μM for 72 h) were also examined. […] According to the propagation profiles (formazan absorbance A550nm vs incubation time) of the treated SUNE1 cells, there is a trend of cellular growth inhibition in the presence of complex 1 at 12 μM level. Taken together with the flow cytometric results, complex 1 appears to inhibit cancer cell proliferation at 12 μM and induce apoptosis at higher doses (i.e. 60 μM).
The apoptosis-inducing properties of complex 14 in SUNE1 cells were also examined by flow cytometry. […] The apoptosis-inducing properties of complex 14 at a lower dose (1 μM for 72 h) were also examined. […] Thus, complex 14 could induce apoptosis at 10 μM.

For another data set, the system named is KB cells. In words: Alkaline comet assay for DNA strand breaks. Format: cell-based. The settings on record: for strand breaks on chromosomal DNA (comet assay): 3 h, KB cells; for reversal of DNA cleavage events upon second incubation: second incubation at 55° C. for 10 min.
The next data set concerns the target T1, TopoI (Homo sapiens, UniProt P11387).
T1 construct: endogenous in cells; host or cells: KB cells
T1 sequence (P11387 1-765): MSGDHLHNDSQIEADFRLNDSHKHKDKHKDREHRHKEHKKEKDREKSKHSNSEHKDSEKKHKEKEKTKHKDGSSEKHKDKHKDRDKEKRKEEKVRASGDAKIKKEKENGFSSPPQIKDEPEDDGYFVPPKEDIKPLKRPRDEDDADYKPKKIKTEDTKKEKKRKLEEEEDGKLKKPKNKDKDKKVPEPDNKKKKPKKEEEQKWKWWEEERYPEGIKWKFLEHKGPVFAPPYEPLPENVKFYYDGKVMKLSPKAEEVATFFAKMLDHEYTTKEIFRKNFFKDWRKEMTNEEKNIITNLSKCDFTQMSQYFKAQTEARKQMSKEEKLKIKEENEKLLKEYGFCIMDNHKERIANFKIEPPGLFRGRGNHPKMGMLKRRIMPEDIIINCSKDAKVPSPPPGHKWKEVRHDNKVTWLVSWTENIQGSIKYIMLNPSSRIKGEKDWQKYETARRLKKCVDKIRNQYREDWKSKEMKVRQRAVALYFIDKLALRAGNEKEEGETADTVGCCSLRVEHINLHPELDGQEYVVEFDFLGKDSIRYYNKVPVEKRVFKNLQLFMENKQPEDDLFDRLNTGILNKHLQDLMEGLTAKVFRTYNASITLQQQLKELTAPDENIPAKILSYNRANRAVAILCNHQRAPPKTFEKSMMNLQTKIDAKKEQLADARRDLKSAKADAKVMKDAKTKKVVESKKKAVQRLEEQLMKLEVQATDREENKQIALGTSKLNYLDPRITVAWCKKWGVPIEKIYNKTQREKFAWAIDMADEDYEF
Briefly: Band depletion assay for TopoI cleavable complexes. Format: cell-based. The settings on record: 1 μM, KB cells. From the text:
In this assay, while TopoI-DNA cleavable complexes are trapped by alkaline lysis, free TopoI is detected as an immunoreactive band.

Turning to `CCCCn1cc[n+](CCCC)[c]1[Pt-2]12[c]3ccccc3-c3cccc([n+]31)-c1cccc[n+]12.F[P-](F)(F)(F)(F)F` (stereo not shown) [Complex 14], the IC50 in data set [1] turned out to be 770 nM; in data set [2], 50 nM; in [3], 40 nM; in [4], 80 nM; in [5] it was 140 nM; in data set [6], 90 nM. In addition, the IC50 in data set [7] came out at 40 nM; in the data set with melanoma (B16), 150 nM; in the data set with leukemia (HL-60), 80 nM; in data set [8] it was 10 µM. The “inhibition of NCI-H460 tumor growth” value is “significantly less effective” in the data set with NCI-H460 tumor (1 mg/kg) and 55% in the data set with NCI-H460 tumor (3 mg/kg). Moreover, the body-weight loss entry in the data set on NCI-H460 tumor (3 or 1 mg/kg) is reported as “no significant weight loss”. Moreover, the “viable cells unstained by both AV-FITC and PI” value with SUNE1 cells (1 μM) is given as around 90%. Besides, in the data set with SUNE1 cells (10 μM), the “SUNE1 cells in early apoptotic state” value came to 46.4%.
For the compound `COc1cccc2c1C(=O)c1c(O)c3c(c(O)c1C2=O)C[C@@](O)(C(=O)CO)C[C@@H]3O[C@H]1C[C@H](N)[C@H](O)[C@H](C)O1` [doxorubicin], the “strand breaks on chromosomal DNA (comet assay)” value with KB cells (1 μg/ml) was “induced extensive strand breaks on chromosomal DNA”. For the same compound, in the data set on KB cells, the “reversal of DNA cleavage events upon second incubation” value is listed as “not”.
On to `CCn1cc[n+](CC)[c]1[Pt-2]12[c]3ccccc3-c3cccc([n+]31)-c1cccc[n+]12.F[P-](F)(F)(F)(F)F` (stereo not shown) [Complex 12], for which the IC50 came to 1300 nM in data set [1]; 480 nM in data set [2]; 890 nM in [3]; 770 nM in data set [4]; 320 nM in [5]; 570 nM in data set [6]. For the same compound, the IC50 was found to be 1200 nM in data set [7], 1800 nM in the data set with melanoma (B16), 520 nM in the data set on leukemia (HL-60) and 2.1 µM in data set [8].
As for `CCCCn1cc[n+](C[n+]2ccn(CCCC)[c]2[Au-]23[c]4ccccc4-c4cccc([n+]42)-c2cccc[c]23)[c]1[Au-]12[c]3ccccc3-c3cccc([n+]31)-c1cccc[c]12.O=S(=O)([O-])C(F)(F)F.O=S(=O)([O-])C(F)(F)F` [Complex 2], the IC50 in [1] stood at 7900 nM; in data set [2], 7800 nM; in data set [3], 10000 nM; in data set [4] it was 28000 nM; in data set [5], 3300 nM; in data set [6], 3000 nM. For the same compound, the IC50 in data set [7] was 4200 nM; with melanoma (B16), 10000 nM; with leukemia (HL-60), 5900 nM; in data set [8], above 100 µM.
On to `CC[C@@]1(O)C(=O)OCc2c1cc1n(c2=O)Cc2cc3ccccc3nc2-1` [CPT, camptothecin], for which the “strand breaks on chromosomal DNA (comet assay)” value in the data set on KB cells (1 μM) is given as “induced extensive strand breaks on chromosomal DNA”. Besides, in the data set on KB cells, the “reversal of DNA cleavage events upon second incubation” value was “partially reversed”. On TopoI, the “band intensity of the TopoI band” value is given as “reduced the band intensity of the TopoI band”.
Take `COc1ccc(-c2cc3[n+]4c(c2)-c2cc5ccccc5c[c]2[Au-]4([c]2n(C)cc[n+]2C)[c]2cc4ccccc4cc2-3)cc1.O=S(=O)([O-])C(F)(F)F` [Complex 8]: the IC50 in data set [1] came out at 1000 nM; in data set [2], 500 nM; in [3] it was 420 nM; in data set [4], 18000 nM; in data set [5], 260 nM; in data set [6], 180 nM. In addition, the IC50 was determined as 960 nM in data set [7], 560 nM in the data set on melanoma (B16), 130 nM in the data set with leukemia (HL-60) and 0.89 µM in data set [8].
As for `Cn1cc[n+](C)[c]1[Pt-2]12[c]3ccccc3-c3cccc([n+]31)-c1cccc[n+]12.F[P-](F)(F)(F)(F)F` (stereo not shown) [Complex 11], the IC50 in data set [1] amounted to 310 nM; in data set [2] it was 330 nM; in data set [3] it was 660 nM; in [4] it was 620 nM; in [5], 510 nM; in data set [6] it was 580 nM. Further, the IC50 in data set [7] worked out at 1500 nM; in the data set with melanoma (B16), 3100 nM; in the data set with leukemia (HL-60), 580 nM; in data set [8] it was 5.7 µM.
Regarding `Cc1cc(C)c(-[n+]2ccn(CC(=O)c3ccccc3)[c]2[Au-]23[c]4ccccc4-c4cccc([n+]42)-c2cccc[c]23)c(C)c1.O=S(=O)([O-])C(F)(F)F` [Complex 5], the concentration for half-maximal inhibition (IC50) in data set [1] worked out at 2600 nM; in [2] it was 3500 nM; in [3] it was 4400 nM; in [4], 4000 nM; in data set [5], 3400 nM; in [6], 9500 nM. In addition, the IC50 in [7] worked out at 13000 nM; in the data set on melanoma (B16) it was 2100 nM; in the data set on leukemia (HL-60) it was 1200 nM; in data set [8], 11 µM.
